This is an account of results in publication PMC9227096, “Design, Synthesis, and In Vitro, In Silico and In Cellulo Evaluation of New Pyrimidine and Pyridine Amide and Carbamate Derivatives as Multi-Functional Cholinesterase Inhibitors” (Pharmaceuticals, 2022).

The experiment deals with T1, equine BChE (eqBChE) (Equus caballus, UniProt P81908).
T1 construct: purchased Sigma-Aldrich (Milan, Italy)
The experiment can be described thus: Reversibility of inhibition vs. eqBChE (ultrafiltration and washing). It counts as biochemical. The conditions noted are these: for inhibition at 5.4 µM: compound 18 5.4 µM, eqBChE 1.25 U. How it is done: Moreover, it was evaluated whether the inhibition mechanism of carbamate 18 towards eqBChE is reversible, irreversible or pseudo-irreversible. For this purpose, the percentages of inhibition were determined both after one hour of the incubation of compound 18 (5.4 µM) with eqBChE (1.25 U), both following the removal of the inhibitor and the washing of the enzyme, carried out through ultrafiltration devices for the concentration of biological samples [35, 36]. To validate the method, the same study was performed with carbaryl (54 µM), a known carbamoylating cholinesterase inhibitor.
After the incubation phase, the solution containing the inhibitor not bound to the enzyme was removed by centrifugation, retaining eqBChE on the membrane of the ultrafiltration devices. Then the enzyme was washed with phosphate buffer, to remove the bound inhibitor and to restore the enzyme activity.
Three solutions were prepared in 0.1 M phosphate buffer (pH = 7.4), containing eqBChE (0.50 UmL^−1), DTNB (0.3 mM) and acetylthiocholine (10 mM), respectively. A solution of compound 18 in DMSO (2.7 mM) was prepared. Then six Vivaspin® were used: • three were prepared with 2.5 mL of eqBChE solution (0.50 UmL^−1) and 5 µL of inhibitor solution; • three were prepared with 2.5 mL of eqBChE solution (0.50 UmL^−1) and 5 µL of DMSO.
The Vivaspin® thus prepared were incubated for 1 h at 25 °C. After this time the percentage of inhibition was determined following the Ellman method. The blank was recorded by taking 500 µL from the Vivaspin® and diluting them in the cuvette in 2.5 mL of DTNB solution (0.3 mM). The reaction was activated by adding 30 μL of acetylthiocholine solution (10 mM), so as to obtain a final concentration of 100 µM in the cuvette. The absorbance variation was measured between 0.5 and 1.5 min at 412 nm, repeating the measurement for each of the six Vivaspin®.
After this procedure the first centrifugation of the Vivaspin® was carried out for 60 min at 4000 rpm and subsequently the solutions that crossed the membrane and settled in the filtrate tube were removed. In this way the solutions present in the concentrator body were concentrated up to 100 µL. To these solutions 1 mL of 0.1 M phosphate buffer (pH = 7.4) was added and the second centrifugation was carried out for 30 min at 4000 rpm. The solutions present in the concentrator body were concentrated up to 200 µL. The second washing was carried out, adding 1 mL of buffer and centrifuging for 30 min at 4000 rpm. The solutions present in the concentrator body were concentrated up to 250 µL. A third wash was carried out adding 1 mL of buffer and centrifuging for 50 min at 4000 rpm. The solutions present in the concentrator body were concentrated up to 150 µL. At this point, to recover the concentrated solution, the filtrate tube was removed, the concentrator body was turned upside down and inserted inside the concentrate recovery cap. The Vivaspin® was centrifuged for 10 min at 4000 rpm. After this time the recovered solution was taken up with 3 mL of DTNB solution (0.3 mM) and transferred into the cuvette: blank was recorded. The reaction was activated when 30 µL of substrate solution (10 mM) were added so as to have a final concentration of 100 µM in the cuvette. The absorbance variation between 0.5 and 1.5 min was measured at 412 nm, repeating the measurement for each of the recovered solutions.
As a positive control carbaryl was used, for which the same procedure was followed, using a 27 mM carbaryl stock solution in DMSO.

Read-outs that look alike come from different tables or passages of the source.

T1 sequence (P81908 whole entry): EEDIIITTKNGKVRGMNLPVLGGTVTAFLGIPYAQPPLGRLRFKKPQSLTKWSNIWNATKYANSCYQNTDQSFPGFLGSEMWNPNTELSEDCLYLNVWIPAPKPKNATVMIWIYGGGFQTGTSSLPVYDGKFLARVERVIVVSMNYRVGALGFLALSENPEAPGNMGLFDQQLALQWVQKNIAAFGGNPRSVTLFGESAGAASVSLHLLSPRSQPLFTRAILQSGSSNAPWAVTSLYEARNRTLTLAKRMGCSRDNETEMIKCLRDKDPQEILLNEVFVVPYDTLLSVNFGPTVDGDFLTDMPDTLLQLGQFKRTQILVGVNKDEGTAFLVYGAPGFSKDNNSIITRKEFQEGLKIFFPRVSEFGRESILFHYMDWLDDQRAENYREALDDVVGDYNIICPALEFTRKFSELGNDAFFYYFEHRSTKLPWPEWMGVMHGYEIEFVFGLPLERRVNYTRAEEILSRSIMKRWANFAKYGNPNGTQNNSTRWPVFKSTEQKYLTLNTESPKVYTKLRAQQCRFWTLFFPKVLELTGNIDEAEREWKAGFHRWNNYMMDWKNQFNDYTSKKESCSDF

The inhibition is the share of the control response that was lost under treatment. Regarding `O=C(NCCCCCCNc1ccccn1)Oc1ccccc1` [Compound 18, Phenyl (6-(pyridin-2-ylamino)hexyl)carbamate], the inhibition at 5.4 µM was 56.7% (after ultrafiltration and washing with phosphate buffer, read-out: percentage of inhibition of eqBChE after removal of inhibitor and washing of the enzyme); 89.7% (before washing, read-out: percentage of inhibition of eqBChE after one hour of incubation). The “inhibition mechanism towards eqBChE (reversible, irreversible or pseudo-irreversible)” value (from restoration of enzymatic activity after washing) was “pseudo-irreversible”.
